The IC50 is the concentration that gives 50% inhibition.

The target in this assay is Human CARM1 (PRMT4) (Homo sapiens (Human), UniProt Q86X55). In words: CARM1 enzyme assay on peptide substrate (3H-SAM Flashplate). The settings on record: Biochemical potencies, classification codes; read-out: Biochem IC50.
Human CARM1 (PRMT4), sequence (Q86X55 other isoform, or with tags, fused parts or gaps isoform Q86X55-1): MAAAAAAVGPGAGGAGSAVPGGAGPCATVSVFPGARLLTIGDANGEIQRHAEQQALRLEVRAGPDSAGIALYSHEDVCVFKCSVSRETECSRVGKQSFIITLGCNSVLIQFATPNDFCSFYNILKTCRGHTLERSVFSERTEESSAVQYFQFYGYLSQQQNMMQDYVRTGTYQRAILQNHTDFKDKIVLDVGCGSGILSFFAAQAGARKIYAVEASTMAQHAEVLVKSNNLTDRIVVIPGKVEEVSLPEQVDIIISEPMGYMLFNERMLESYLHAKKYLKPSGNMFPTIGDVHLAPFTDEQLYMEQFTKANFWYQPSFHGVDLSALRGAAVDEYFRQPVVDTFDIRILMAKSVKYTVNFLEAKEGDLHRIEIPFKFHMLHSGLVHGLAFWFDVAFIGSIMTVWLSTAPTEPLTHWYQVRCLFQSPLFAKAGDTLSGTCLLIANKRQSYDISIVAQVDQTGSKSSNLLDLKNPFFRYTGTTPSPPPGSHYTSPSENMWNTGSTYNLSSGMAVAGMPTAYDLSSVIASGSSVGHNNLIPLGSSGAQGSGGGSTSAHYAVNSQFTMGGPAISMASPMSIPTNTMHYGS
Regarding `CCOC(=O)N1CCOC[C@@H]1CNc1nc(-c2cc(OC[C@@H](O)CNC)ccc2F)nc(-c2c(C)noc2C)c1C` [Example 61-3], the IC50 was below 100 nM.

Turning to `CNCC(O)COc1cccc(-c2nc(-c3ccc4c(c3)OCCO4)cc(N(CCOC)CCOC)n2)c1` (stereo not drawn) [Example 62-1], the IC50 was below 100 nM.

For `CCOC(=O)N1CCOC[C@@H]1CNc1nc(-c2cc(OC[C@H](O)CNC)ccc2F)nc(-c2c(C)noc2C)c1C` [Example 62-3], the IC50 was below 100 nM.

In the case of `CNC[C@H](O)COc1ccc(F)c(-c2nc(N[C@H]3CCN(C(=O)OC)C[C@H]3F)c(C)c(-c3c(C)noc3C)n2)c1` [Example 63-3], the IC50 is below 100 nM.

`CNCC(O)COc1cccc(-c2nc(-c3ccc(OC)c(OC)c3)cc(N(CCOC)CCOC)n2)c1` (stereo not drawn) [Example 64-1]: the IC50 was below 100 nM.

For the molecule `CNC[C@@H](O)COc1ccc(F)c(-c2nc(N[C@H]3CCN(C(=O)OC)C[C@H]3F)c(C)c(-c3c(C)noc3C)n2)c1` [Example 64-3], the IC50 is below 100 nM.

With `CNC[C@H](O)COc1ccc(Cl)c(-c2nc(N[C@H]3CCN(C(=O)OC)C[C@H]3F)c(C)c(-c3c(C)noc3C)n2)c1` [Example 65-3], the concentration for half-maximal inhibition (IC50) was below 100 nM.

With `CNCC(O)COc1cccc(-c2nc(N[C@@H]3CCOC3)c(C)c(-c3c(C)noc3C)n2)c1` (stereo partly drawn) [Example 66-1a], the IC50 is below 100 nM.

In the case of `CNC[C@H](O)COc1ccc(Cl)c(-c2nc(N[C@@H]3CCN(C(=O)OC)[C@@H](C)C3)c(C)c(-c3c(C)noc3C)n2)c1` [Example 66-3], the IC50 was below 100 nM.

`CNCC(O)COc1cccc(-c2nc(N[C@H]3C[C@@](C)(O)C3)cc(-c3c(C)noc3C)n2)c1` (stereo partly drawn) [Example 67-1a]: the IC50 was below 100 nM.

`CCS(=O)(=O)N1CCC(Nc2nc(-c3cc(OC[C@@H](O)CNC)ccc3Cl)nc(-c3c(C)noc3C)c2C)CC1` [Example 67-3]: the IC50 is below 100 nM.

Consider `CNCC(O)COc1cccc(-c2nc(-c3c(C)noc3C)cc(N3CCN(CCF)CC3)n2)c1` (stereo not drawn) [Example 68-1a], for which the IC50 is below 100 nM.

Take `CNC[C@@H](O)COc1cccc(-c2nc(N[C@@H]3CCN(C4CC4)C[C@@H]3F)c(Cl)c(-c3c(C)noc3C)n2)c1` [Example 68-3]: the IC50 is below 100 nM.

With `CNCC(O)COc1cccc(-c2nc(-c3c(C)noc3C)cc(N3CC[C@H](S(C)(=O)=O)C3)n2)c1` (stereo partly drawn) [Example 69-1a], the IC50 was below 100 nM.

As for `CNC[C@H](O)COc1ccc(Cl)c(-c2nc(-c3c(C)noc3C)cc(N3CC4(CCN(C5CC5)CC4)C3)n2)c1` [Example 69-3], the IC50 is below 100 nM.

As to `CNCC(O)COc1cc(Cl)cc(-c2nc(-c3ccn4cnnc4c3)c(C)c(N(C)C3CCOCC3)n2)c1` (stereo not drawn) [Example 70-1], the IC50 is below 100 nM.

For `CNCC(O)COc1cccc(-c2nc(-c3c(C)noc3C)cc(N3CCN(C(C)=O)C4(CC4)C3)n2)c1` (stereo not drawn) [Example 70-1a], the IC50 was below 100 nM.

In the case of `CCS(=O)(=O)N1CCC(Nc2nc(-c3cccc(OCC(O)CNC)c3)nc(-c3c(C)nsc3C)c2C)CC1` (stereo not drawn) [Example 70-3], the IC50 is below 100 nM.

Turning to `CNCC(O)COc1cccc(-c2nc(NCCCN3CCCC3=O)cc(-c3ccc(C(F)(F)F)nc3)n2)c1` (stereo not drawn) [Example 71-1], the IC50 is below 100 nM.

For `CNCC(O)COc1cccc(-c2nc(-c3c(C)noc3C)c(C)c(N3CC[C@H](N(C)C(C)=O)C3)n2)c1` (stereo partly drawn) [Example 71-1a], the IC50 is below 100 nM.

With `CCS(=O)(=O)N1CCOC[C@@H]1CNc1nc(-c2cccc(OCC(O)CNC)c2)nc(-c2c(C)nsc2C)c1C` (stereo partly drawn) [Example 71-3], the IC50 is below 100 nM.

For `CNCC(O)COc1cccc(-c2nc(Nc3cnc(OC)nc3)cc(-c3c(C)noc3C)n2)c1` (stereo not drawn) [Example 72-1a], the IC50 is below 100 nM.

On to `CNC[C@H](O)COc1ccc(F)c(-c2nc(NC3CCOCC3)c(C)c(-c3c(C)noc3C)n2)c1` [Example 72-3], for which the IC50 was below 100 nM.

On to `CNC[C@H](O)COc1ccc(F)c(-c2nc(NC3CCOC(C)C3)c(C)c(-c3c(C)noc3C)n2)c1` (stereo partly drawn) [Example 73-3], for which the IC50 is below 100 nM.

In the case of `CNCC(O)COc1cc(N)cc(-c2nc(NC3CCOCC3)c(C)c(-c3c(C)noc3C)n2)c1` (stereo not drawn) [Example 74-1a], the IC50 is below 100 nM.

Regarding `CNC[C@H](O)COc1ccc(Cl)c(-c2nc(-c3c(C)noc3C)c(C)c(N3CCN(C)C(C(F)F)C3)n2)c1` (stereo partly drawn) [Example 74-3], the IC50 is below 100 nM.

Take `CNCC(O)COc1cc(OC)cc(-c2nc(NC3CCOCC3)c(C)c(-c3c(C)noc3C)n2)c1` (stereo not drawn) [Example 75-1a]: the 50% inhibitory concentration (IC50) was below 100 nM.

Turning to `CNC[C@H](O)COc1ccc(Cl)c(-c2nc(-c3c(C)noc3C)c(C)c(N3CCC4(CC3)CN(S(C)(=O)=O)C4)n2)c1` [Example 75-3], the IC50 is below 100 nM.

As for `CNCC(O)COc1cc(O)cc(-c2nc(NC3CCOCC3)c(C)c(-c3c(C)noc3C)n2)c1` (stereo not drawn) [Example 76-1a], the half-inhibitory concentration (IC50) is below 100 nM.

With `CNC[C@H](O)COc1ccc(F)c(-c2nc(-c3c(C)noc3C)c(C)c(N3CCC4(CC3)CN(S(C)(=O)=O)C4)n2)c1` [Example 76-3], the IC50 was below 100 nM.

In the case of `CCOC(=O)N1CCN(c2nc(-c3cccc(OCC(O)CNC)c3)nc(-c3c(C)noc3C)c2C)CC1` (stereo not drawn) [Example 77-1a], the half-maximal inhibitory concentration (IC50) is below 100 nM.

In the case of `CCN1CCC[C@@H]1CNc1nc(-c2cc(OC[C@@H](O)CNC)ccc2Cl)nc(-c2c(C)noc2C)c1C` [Example 77-3], the IC50 is below 100 nM.

With `CNCC(O)COc1cccc(-c2nc(NCC3CCOCC3)cc(-c3c(C)noc3C)n2)c1` (stereo not drawn) [Example 78-1a], the IC50 was below 100 nM.

As for `CNCC(O)COc1cccc(-c2nc(-c3c(C)noc3C)cc(N3CCN(CC(F)F)CC3)n2)c1` (stereo not drawn) [Example 79-1a], the IC50 is below 100 nM.

`CNCC(O)COc1cccc(-c2nc(-c3c(C)noc3C)cc(N3C[C@@H]4C[C@H]3CN4S(C)(=O)=O)n2)c1` (stereo partly drawn) [Example 80-1a]: the concentration for half-maximal inhibition (IC50) is below 100 nM.

As for `CNCC(O)COc1cccc(-c2nc(-c3c(C)noc3C)cc(N3CCN(C(=O)OC)CC3)n2)c1` (stereo not drawn) [Example 81-1a], the IC50 is below 100 nM.

For `CNC[C@H](O)COc1ccc(Cl)c(-c2nc(NCCC(C)(C)OC)c(C)c(-c3c(C)noc3C)n2)c1` [Example 82-3], the IC50 was below 100 nM.

For the molecule `CNC[C@H](O)COc1ccc(F)c(-c2nc(NCCC(C)(C)OC)c(C)c(-c3c(C)noc3C)n2)c1` [Example 83-3], the IC50 was below 100 nM.

On to `CNCC(O)COc1cccc(-c2nc(-c3c(C)noc3C)c(C)c(N3C[C@@H]4C[C@H]3CN4C)n2)c1` (stereo partly drawn) [Example 84-1a], for which the IC50 is below 100 nM.

On to `CNC[C@H](O)COc1ccc(F)c(-c2nc(-c3c(C)noc3C)c(C)c(N3CCC4(CC3)CN(C(=O)OC)C4)n2)c1` [Example 84-3], for which the IC50 was below 100 nM.

Consider `CNCC(O)COc1cccc(-c2nc(NC3(C)CCOCC3)cc(-c3c(C)noc3C)n2)c1` (stereo not drawn) [Example 85-1a], for which the IC50 was below 100 nM.

With `CNC[C@H](O)COc1ccc(Cl)c(-c2nc(-c3c(C)noc3C)c(C)c(N3CCC4(CC3)CN(C(=O)OC)C4)n2)c1` [Example 85-3], the 50% inhibitory concentration (IC50) was below 100 nM.

Regarding `CNCC(O)COc1cccc(-c2nc(-c3c(C)noc3C)c(C)c(N(C)CC3CCOCC3)n2)c1` (stereo not drawn) [Example 86-1a], the IC50 is below 100 nM.

As to `CNC[C@H](O)COc1ccc(Cl)c(-c2nc(-c3c(C)noc3C)c(C)c(N3Cc4cc(F)cnc4C3)n2)c1` [Example 86-3], the IC50 was below 100 nM.

Consider `CNCC(O)COc1cccc(-c2nc(-c3c(C)noc3C)cc(N(C)CC3CCOCC3)n2)c1` (stereo not drawn) [Example 87-1a], for which the IC50 is below 100 nM.

Source of the values: US20230279020A9, “CARM1 INHIBITORS AND USES THEREOF” (Epizyme, Inc., priority 2013, published 2023).
